# Reference: patent US20220249431A1, “ANTIMYCOTIC” (Karl-Franzens-Universität Graz, priority 2019, published 2022)
# Where two headings read alike, the source gives them in different places.
# Assays:
# C. glabrata biofilm = assay: Biofilm inhibition concentration (XTT); format: cell-based, Candida glabrata; conditions: Nakaseomyces glabratus, read-out: BIC50
# Method: (§1) In short, RPMI medium was inoculated with an overnight culture to an OD (optical density) of 0.1, transferred to a U-bottom 96-well plate (MLS, Belgium) and treated with serial dilutions of substances. After the adherence phase (1 h, 37° C.), supernatant was removed, adherent cells were washed with PBS and fresh media (including substances) was added. Biofilms were then allowed to grow for 24 h at 37° C. Formed biofilms were then analyzed for their metabolic activity. Therefore, C. albicans biofilm cells were treated with CTB (cell titer Blue®; Promega, Germany), diluted 1:100 in PBS. […] Sigma, Germany or ABCR, Germany) was used instead. Thereby, biofilm cells were treated with an XTT solution (0.25 mg/mL XTT+0.1 μM menadione in PBS) at 37° C. in the dark and OD490 was measured.
# C. glabrata = assay: Minimal inhibitory concentration, planktonic cells (CLSI M27); format: cell-based, Candida glabrata; conditions: Nakaseomyces glabratus, growth reduced to 50% of untreated control
# Method: (§2) The minimal inhibitory concentration (MIC) was determined following the standard Clinical and Laboratory Standards Institute (CLSI) protocol M27 (Rex JH, and Clinical and Laboratory Standards Institute (2008). Reference method for broth dilution antifungal susceptibility testing of yeasts: approved standard, 3rd ed. National Committee for Clinical Laboratory Standards, Wayne, Pa.) for yeast strains or the standard CLSI protocol […] (Clinical and Laboratory Standards Institute (2008). Reference method for broth dilution antifungal susceptibility testing of filamentous fungi. Clinical and Laboratory Standards Institute, Wayne, Pa.) for filamentous fungi. For yeast strains media was inoculated with an overnight culture to an OD600 of 0.001 (1^04 cells/mL). Serial dilutions of substances were added and cells were incubated at 37° C. without shaking for 48±1 h. MIC tests were performed in flat-bottom 96 well plates (Greiner Bio One, Austria) using 100 μL suspension per well sealed with gas-permeable foils. After incubation, OD490 values were measured using 96-well plate reader and growth capacity was analyzed by setting the corresponding control to 100%. Different flavones were randomly chosen and tested for their effects on planktonic cells and biofilms of C. albicans and C. glabrata to determine corresponding IC50 values (the concentration that is required to reduce growth (minimal inhibitory concentration=MIC) or biofilm formation (biofilm inhibitory concentration=BIC) to 50% compared to the untreated control).
# C. albicans [1] = assay: as above; format: cell-based; conditions: Candida albicans, growth reduced to 50% of untreated control
# Method: as §2
# C. albicans SC5314 = assay: C. elegans infection model, worm survival; format: in vivo
# Method: The C. elegans Δglp-4 Δsek-1 strain (generously provided by Valerie Defraine, Centre of Microbial and Plant Genetics, KU Leuven, Belgium) was used for in vivo testing of antifungal activity. Worms were maintained on NGM plates (nematode growth medium; 2.5 g/L Bacto Peptone, 3 g/L NaCl, 17 g/L agar, supplemented with 5 mg/L cholesterol, 1 mM CaCl2), 1 mM MgSO4 and 25 mM KPO4 buffer pH 6.0), seeded with a thin layer of E. coli OP50, at 16° C. and worms were chunked onto fresh plates every three to four days.
# Egg collecting was performed by bleaching according to Stiernagle T (“Maintenance of C. elegans”. WormBook. doi: 10.1895/wormbook.1.101 (2006)) and Porta-de-la-Riva M et al. JoVE 64(2012): e4019-e4019). In short, adult worms were collected from plates and treated with a bleaching solution (10 mL household bleach+5 mL 5M NaOH), thereby worms disintegrate and eggs are released. After vigorous shaking for 5 min, M9 medium (3 g/L KH2PO4, 6 g/L Na2HPO4, 5 g/L NaCl, supplemented with 1.25 mM MgSO4) was added and worms were immediately put on ice. After three washing steps, residual eggs were incubated in M9 medium over night at 16° C. on a tube roller. The next day, eggs were collected, transferred onto fresh NGM/OP50 plates and incubated at 25° C. for 3-4 days until nematodes have reached the L3/L4 stage prior to infection.
# Synchronized (L3/L4 stage) worms were collected, washed three times with M9 media and spotted onto prepared YPD plates with a thin layer of C. albicans SC5314. […]
# For efficacy testing of compounds, 750 μL of the worm suspension were transferred into each well of a 24-well plate and substances were added at indicated concentrations (1% DMSO). Nematodes were immediately counted (t0) and survival was monitored over five days post infection by counting living worms.
# To verify the antifungal potential of DHF in vivo, the well-established C. elegans infection model (Breger J, et al. (2007) PLOS Pathog. 3(2): e18.) was used. […] Survival of infected as well as non-infected nematodes was monitored daily over the time period of 5 days (FIG. 2A). […]
# C. albicans biofilm = assay: Biofilm inhibition concentration (CTB staining); format: cell-based; conditions: Candida albicans; C. albicans biofilm formation reduced to 50% of untreated control; read-out: BIC50
# Method: as §1, with “The biofilm inhibition concentration (BIC) was determined as described in […] et al. (J Antimicrob Chemother 69(2014): 1035-1044). In” for “In”, “PBS. After incubation for 1 h at 37° C. in the dark fluorescence intensity was measured using a 96-well plate reader (Ex: 535, Em: 590, sens 65).” for “PBS.”, “measured. As for MIC, biofilm inhibition was analyzed by setting the corresponding control to 100%. Different flavones were randomly chosen and tested for their effects on planktonic cells and biofilms of C. albicans and C. glabrata to determine corresponding IC50 values (the concentration that is required to reduce growth (minimal inhibitory concentration=MIC) or biofilm formation (biofilm inhibitory concentration=BIC) to 50% compared to the untreated control).” for “measured.”
# C. albicans biofilms = assay: Checkerboard assay, biofilm inhibition (CTB staining); format: cell-based, Candida albicans
# Method: The biofilm inhibition concentration (BIC) was determined as described in Delattin N et al. (J Antimicrob Chemother 69(2014): 1035-1044). In short, RPMI medium was inoculated with an overnight culture to an OD (optical density) of 0.1, transferred to a U-bottom 96-well plate (MLS, Belgium) and treated with serial dilutions of substances. After the adherence phase (1 h, 37° C.), supernatant was removed, adherent cells were washed with PBS and fresh media (including substances) was added. Biofilms were then allowed to grow for 24 h at 37° C.
# Formed biofilms were then analyzed for their metabolic activity. Therefore, C. albicans biofilm cells were treated with CTB (cell titer Blue®; Promega, Germany), diluted 1:100 in PBS. After incubation for 1 h at 37° C. in the dark fluorescence intensity was measured using a 96-well plate reader (Ex: 535, Em: 590, sens 65). For C. glabrata, XTT (2H-Tetrazolium, 2,3-bis(2-methoxy-4-nitro-5-sulfophenyl)-5-[(phenylamino)carbonyl]-hydroxide; Sigma, Germany or ABCR, Germany) was used instead. Thereby, biofilm cells were treated with an XTT solution (0.25 mg/mL XTT+0.1 μM menadione in PBS) at 37° C. in the dark and OD490 was measured.
# For synergy testing of different combinations, checkerboard assays were performed. […] Antifungal activity of substances alone or in combination was determined by setting the corresponding control to 100%.
# C. albicans [2] = assay: Checkerboard / combination assay, growth of planktonic cells (OD490); format: cell-based, Candida albicans; conditions: for antimycotic effect in combination with other known antimycotics: FIGS. 6 and 7; for effect on antifungal activity of azole antifungals (growth, OD490): flavone 6.25-25 μM with 0.1 μM miconazole or 1 μM fluconazole
# Method: The minimal inhibitory concentration (MIC) was determined following the standard Clinical and Laboratory Standards Institute (CLSI) protocol M27 (Rex JH, and Clinical and Laboratory Standards Institute (2008). Reference method for broth dilution antifungal susceptibility testing of yeasts: approved standard, 3rd ed. National Committee for Clinical Laboratory Standards, Wayne, Pa.) for yeast strains or the standard CLSI protocol M38 (Clinical and Laboratory Standards Institute (2008). Reference method for broth dilution antifungal susceptibility testing of filamentous fungi. Clinical and Laboratory Standards Institute, Wayne, Pa.) for filamentous fungi.
# For yeast strains media was inoculated with an overnight culture to an OD600 of 0.001 (1^04 cells/mL). Serial dilutions of substances were added and cells were incubated at 37° C. without shaking for 48±1 h.
# MIC tests were performed in flat-bottom 96 well plates (Greiner Bio One, Austria) using 100 μL suspension per well sealed with gas-permeable foils. After incubation, OD490 values were measured using 96-well plate reader and growth capacity was analyzed by setting the corresponding control to 100%.
# For synergy testing of different combinations, checkerboard assays were performed. Therefore, serial dilutions of two different compounds were combined for MIC, BIC or BEC testing as described above. Antifungal activity of substances alone or in combination was determined by setting the corresponding control to 100%.
# [3] = C. glabrata biofilm formation reduced to 50% of untreated control
smiles,measurement,setting,value
"O=c1c(O)c(-c2ccccc2O)oc2ccccc12 [2′,3-dihydroxyflavone]",IC50,C. glabrata biofilm; [3],124 ± 34.7 µM
same,MIC50,C. glabrata,53.9 ± 2.1 µM
"O=c1c(O)c(-c2cccc(O)c2)oc2ccccc12 [3,3′-dihydroxyflavone]",IC50,C. glabrata biofilm; [3],21.5 ± 3.6 µM
same,MIC50,C. albicans [1],254 ± 68.5 µM
same,MIC50,C. glabrata,5.9 ± 0.1 µM
"O=c1c(O)c(-c2ccccc2)oc2ccc(O)cc12 [3,6-dihydroxyflavone]",effect on activity of azoles in vivo (worm survival),"C. albicans SC5314; 25 μM 3,6-DHF with 0.125 μM miconazole or 0.5 μM fluconazole, 5 days",enhances the activity of azoles
same,effect on antifungal activity of AMB in vivo (worm survival),"C. albicans SC5314; 25 μM 3,6-DHF with 0.5 μM AMB, 5 days",enhances the antifungal activity of AMB
same,worms still alive at day 5 post infection,"C. albicans SC5314; 50 μM DHF, single application immediately after infection, infected control 20.5%",45.7%
same,IC50,C. albicans biofilm,55.2 ± 8.1 µM
same,"effect on activity of caspofungin, biofilm formation","C. albicans biofilms; 39 nM Caspo, 3.1 μM 3,6-DHF",enhances the activity of Caspofungin
same,combination with AMB on biofilms in vitro,"C. albicans biofilms; 0.16 μM AMB, 25 μM 3,6-DHF",acts synergistically with AMB
same,"effect on activity of caspofungin, growth of planktonic cells","C. albicans [2]; 4.9 nM Caspo, 5 μM 3,6-DHF, preliminary data",enhances the activity of Caspofungin
same,effect on activity of azoles in vitro (growth inhibition),"C. albicans [2]; 3.1 μM 3,6-DHF with 0.4 μM miconazole or 0.5 μM fluconazole",enhances the activity of azoles
same,IC50,C. glabrata biofilm; [3],23.4 ± 9.7 µM
same,MIC50,C. albicans [1],9.5 ± 0.1 µM
same,MIC50,C. glabrata,7.9 ± 1 µM
"O=c1c(O)c(-c2ccccc2)oc2cc(O)ccc12 [3,7-dihydroxyflavone]",IC50,C. glabrata biofilm,62.5 ± 26 µM
O=c1c(O)c(-c2ccccc2)oc2ccccc12 [3-hydroxyflavone],MIC50,C. glabrata,6.2 ± 0.2 µM
"O=c1cc(-c2ccc(O)c(O)c2)oc2cc(O)ccc12 [3′,4′,7-trihydroxyflavone]",antimycotic effect in combination with other known antimycotics,C. albicans [2],synergistic antimycotic effect
same,"effect on antifungal activity of azole antifungals (growth, OD490)",C. albicans [2],enhance the antifungal activity of azole antifungals
"O=c1cc(-c2ccc(O)c(O)c2)oc2ccccc12 [3′,4′-dihydroxyflavone]",IC50,C. albicans biofilm,147 ± 17.3 µM
same,"effect on antifungal activity of antimycotics (growth, OD490)","C. albicans [2]; 12.5-25 μM 3′,4′-DHF with miconazole, fluconazole, ketoconazole or clotrimazole",enhances the antifungal activity of antimycotics
same,antimycotic effect in combination with other known antimycotics,C. albicans [2],synergistic antimycotic effect
O=c1cc(-c2cccc(O)c2)oc2ccccc12 [3′-hydroxyflavone],IC50,C. glabrata biofilm; [3],26.7 ± 3 µM
"O=c1cc(-c2ccc(O)cc2)oc2cccc(O)c12 [4′,5-dihydroxyflavone, reference compound]",IC50,C. albicans biofilm,> 400 µM
same,IC50,C. glabrata biofilm; [3],> 400 µM
same,MIC50,C. albicans [1],> 400 µM
same,MIC50,C. glabrata,> 400 µM
"O=c1cc(-c2ccccc2)oc2cc(O)cc(O)c12 [5,7-dihydroxyflavone, reference compound]",IC50,C. albicans biofilm,> 400 µM
same,IC50,C. glabrata biofilm; [3],> 400 µM
same,MIC50,C. albicans [1],> 400 µM
same,MIC50,C. glabrata,> 400 µM
"O=c1cc(-c2ccccc2)oc2cc(O)c(O)cc12 [6,7-dihydroxyflavone]",IC50,C. glabrata biofilm; [3],41.7 ± 9.1 µM
same,MIC50,C. glabrata,15.7 ± 4.1 µM
O=c1cc(-c2ccccc2)oc2ccc(O)cc12 [6-hydroxyflavone],IC50,C. glabrata biofilm; [3],129 ± 14.2 µM
O=c1cc(-c2ccccc2)oc2cc(O)ccc12 [7-hydroxyflavone],IC50,C. glabrata biofilm,17.4 ± 7 µM
"O=c1cc(-c2ccc(O)c(O)c2)oc2cc(O)cc(O)c12 [luteolin, 3′,4′,5,7-tetrahydroxyflavone]",antimycotic effect in combination with other known antimycotics,C. albicans [2],synergistic antimycotic effect
same,"effect on antifungal activity of azole antifungals (growth, OD490)",C. albicans [2],enhance the antifungal activity of azole antifungals
